Structures can show the parent of a compound that is named as a salt.
Assays:
Abl (T315I) = molecular target: T1, Abl (T315I) (Homo sapiens, UniProt P00519, T315I); assay: Abl (T315I) Kinase Assay (KinaseGlo luminescent detection of residual ATP); format: biochemical; conditions: Abl (T315I) IC50 (nM), Abl (T315I) (Upstate, 17 ng/well), Abltide 100 uM, ATP 500 nM, 60 minutes at 37° C.
T1 construct: purchased Upstate
Method: The assay was performed similarly to the Abl kinase assay. Abl (T315I) (Upstate, 17 ng/well); Abltide substrate (100 uM) and ATP (500 nM) comprised the reaction mixture. Compound was similarly diluted, and the reaction plate was incubated for 60 minutes at 37° C.

Abl kinase = Abl kinase (Homo sapiens, UniProt P00519); assay: biochemical; conditions: Abl IC50 (nM), Abl kinase (Invitrogen, 20 ng/well), Abltide 100 μM, ATP 500 nM, 37° C. for 60 minutes, top concentration 10 uM
Method: Kinase activity was assessed using luminescent detection (KinaseGlo, Promega) of residual ATP concentration in reaction mixtures containing optimized levels of kinase, substrate, ATP, compound and appropriate buffers. Kinase, substrate and ATP concentrations were determined per the supplier's recommendations. Briefly, this involved running concentration curves to select for optimal signal.
The reaction mixture (50 ul/well) consisted of Abl kinase (Invitrogen, 20 ng/well); Abltide peptide substrate (Upstate, 100 μM) and ATP (500 nM). Each compound was evaluated at a top concentration of 10 uM with 1:3 dilution steps, 10 dilution steps total. Compound was diluted into DMSO and transferred to the reaction plate, resulting in a final DMSO concentration of 2%. This amount of DMSO was determined not to interfere with the enzyme. The reaction was conducted at 37° C. for 60 minutes. The degree of inhibition was assessed using IC50 determinations, which were obtained using GraphPad Prism4.

| Compound | IC50 (Abl (T315I)) | IC50 (Abl kinase) |
| --- | --- | --- |
| Nc1nc2cc(C(F)(F)F)cc(/C=C/c3cnc(Nc4ccc(S(=O)(=O)C5CCNCC5)cc4)nc3)c2[nH]1 [7-((E)-2-(2-(4-(piperidin-4-ylsulfonyl)phenylamino)pyrimidin-5-yl)vinyl)-5-(trifluoromethyl)-1H-benzo[d]imidazol-2-amine] | 254 nM | 130 nM |
| O=C(c1ccc(Nc2ncc(/C=C/c3cccc4[nH]ncc34)cn2)cc1)N1CCNCC1 [(4-(5-((E)-2-(1H-indazol-4-yl)vinyl)pyrimidin-2-ylamino)phenyl)(piperazin-1-yl)methanone hydrochloride] | 231 nM | 20 nM |
| C[C@H](N)C(=O)N1CCC(S(=O)(=O)c2ccc(Nc3ncc(/C=C/c4cccc5[nH]ccc45)cn3)cc2)CC1 [(S)-1-(4-(4-(5-((E)-2-(1H-indol-4-yl)vinyl)pyrimidin-2-ylamino)phenylsulfonyl)piperidin-1-yl)-2-aminopropan-1-one hydrochloride] | 464 nM | 43 nM |
| O=S(=O)(NCCO)c1ccc(Nc2ncc(/C=C/c3cccc4[nH]ncc34)cn2)cc1N1CCNCC1 [N-(2-hydroxyethyl)-4-({5-[(E)-2-(1H-indazol-4-yl)vinyl]pyrimidin-2-yl}amino)-2-piperazin-1-ylbenzenesulfonamide trifluoroacetic acid salt] | 81 nM | 30 nM |
| O=S(=O)(c1ccc(Nc2ncc(/C=C/c3cccc4[nH]ncc34)cn2)cc1)N(CCO)C1CCNCC1 [N-(2-hydroxyethyl)-4-({5-[(E)-2-(1H-indazol-4-yl)vinyl]pyrimidin-2-yl}amino)-N-piperidin-4-ylbenzenesulfonamide] | 251 nM | 77 nM |
| O=S(=O)(c1ccc(Nc2ncc(/C=C/c3cccc4[nH]ccc34)cn2)cc1)N(CCO)C1CCNCC1 [N-(2-hydroxyethyl)-4-({5-[(E)-2-(1H-indol-4-yl)vinyl]pyrimidin-2-yl}amino)-N-piperidin-4-ylbenzenesulfonamide] | 728 nM | 430 nM |
| O=S(=O)(NCCO)c1ccc(Nc2ncc(/C=C/c3cccc(O)c3)cn2)cc1N1CCNCC1 [N-(2-hydroxyethyl)-4-({5-[(E)-2-(3-hydroxyphenyl)vinyl]pyrimidin-2-yl}amino)-2-piperazin-1-ylbenzenesulfonamide trifluoroacetic acid salt] | 514 nM | 66 nM |
| O=S(=O)(NCCO)c1ccc(Nc2ncc(/C=C/c3ccccc3)cn2)cc1N1CCNCC1 [N-(2-hydroxyethyl)-4-({5-[(E)-2-phenylvinyl]pyrimidin-2-yl}amino)-2-piperazin-1-ylbenzenesulfonamide trifluoroacetic acid salt] | 7340 nM | 406 nM |
| O=C(Nc1cccc(/C=C/c2cnc(Nc3ccc(S(=O)(=O)C4CCNCC4)cc3)nc2)c1)c1cccc(C(F)(F)F)c1 [N-(3-((E)-2-(2-(4-(piperidin-4-ylsulfonyl)phenylamino)pyrimidin-5-yl)vinyl)phenyl)-3-(trifluoromethyl)benzamide Hydrochloride] | 1280 nM | 17 nM |
| O=C(Nc1cccc(/C=C/c2cnc(Nc3cccnc3)nc2)c1)c1cccc(C(F)(F)F)c1 [N-(3-{2-[2-(Pyridin-3-ylamino)-pyrimidin-5-yl]-vinyl}-phenyl)-3-trifluoromethyl-benzamide] | > 10000 nM | 148 nM |
| C=Cc1cnc(Nc2ccc(S(=O)(=O)C3CCN(C)CC3)cc2)nc1 [N-(4-(1-methylpiperidin-4-ylsulfonyl)phenyl)-5-vinylpyrimidin-2-amine] | 1570 nM | 4250 nM |
| O=C(Nc1ccc(/C=C/c2cnc(Nc3ccc(S(=O)(=O)C4CCNCC4)cc3)nc2)cc1)c1cccc(C(F)(F)F)c1 [N-(4-((E)-2-(2-(4-(piperidin-4-ylsulfonyl)phenylamino)pyrimidin-5-yl)vinyl)phenyl)-3-(trifluoromethyl)benzamide Hydrochloride] | 1010 nM | 506 nM |
| C=Cc1cnc(Nc2ccc(S(=O)(=O)C3CCNCC3)cc2)nc1 [N-(4-(piperidin-4-ylsulfonyl)phenyl)-5-vinylpyrimidin-2-amine trifluoroacetate] | 368 nM | 1390 nM |

Results, then the compound that gave them:

| IC50 (Abl (T315I)) | IC50 (Abl kinase) | Compound |
| --- | --- | --- |
| 428 nM | 259 nM | Nc1nc2ccc(/C=C/c3cnc(Nc4ccc(OC5CCNCC5)cc4)nc3)cc2s1 [6-[(E)-2-(2-{[4-(piperidin-4-yloxy)phenyl]amino}pyrimidin-5-yl)vinyl]-1,3-benzothiazol-2-amine] |
| 58 nM | 50 nM | Nc1nc2ccc(/C=C/c3cnc(Nc4ccc(S(=O)(=O)C5CCNCC5)cc4)nc3)cc2s1 [6-[(E)-2-(2-{[4-(piperidin-4-ylsulfonyl)phenyl]amino}pyrimidin-5-yl)vinyl]-1,3-benzothiazol-2-amine trifluoroacetic acid salt] |
| 169 nM | 192 nM | Nc1nc2ccc(/C=C/c3cnc(Nc4ccc(S(=O)(=O)C5CCNCC5)cc4)nc3)cc2[nH]1 [6-[(E)-2-(2-{[4-(piperidin-4-ylsulfonyl)phenyl]amino}pyrimidin-5-yl)vinyl]-1H-benzimidazol-2-amine] |
| 136 nM | 469 nM | Nc1cn2cc(/C=C/c3cnc(Nc4ccc(S(=O)(=O)C5CCNCC5)cc4)nc3)ccc2n1 [6-[(E)-2-(2-{[4-(piperidin-4-ylsulfonyl)phenyl]amino}pyrimidin-5-yl)vinyl]imidazolo[1,2-a]pyridin-2-amine trifluoroacetic acid salt] |
| 173 nM | 81 nM | Nc1nc2ccc(/C=C/c3cnc(Nc4ccc(S(=O)(=O)CCCN5CCCC5)cc4)nc3)cc2s1 [6-{(E)-2-[2-({4-[(3-pyrrolidin-1-ylpropyl)sulfonyl]phenyl}amino)pyrimidin-5-yl]vinyl}-1,3-benzothiazol-2-amine trifluoroacetic acid salt] |
| 21 nM | 42 nM | Nc1nc2ccc(/C=C/c3cnc(Nc4ccc(S(=O)(=O)N5CCC(N)CC5)cc4)nc3)cc2s1 [6-{(E)-2-[2-({4-[(4-aminopiperidin-1-yl)sulfonyl]phenyl}amino)pyrimidin-5-yl]vinyl}-1,3-benzothiazol-2-amine] |
| 561 nM | 31 nM | Nc1cccc(/C=C/c2cnc(Nc3ccc(S(=O)(=O)C4CCNCC4)cc3)nc2)c1 [15-(3-aminostyryl)-N-(4-(piperidin-4-ylsulfonyl)phenyl)pyrimidin-2-amine Hydrochloride] |
| 115 nM | 119 nM | Nc1nc2ccc(/C=C/c3cnc(Nc4ccc(S(=O)(=O)N5CCNCC5CO)cc4)nc3)cc2s1 (centres unmarked) [(1-{[4-({5-[(E)-2-(2-amino-1,3-benzothiazol-6-yl)vinyl]pyrimidin-2-yl}amino)phenyl]sulfonyl}piperazin-2-yl)methanol] |
| 194 nM | 437 nM | Nc1nc2ccc(/C=C/c3cnc(Nc4ccc(S(=O)(=O)N5CCC(CO)CC5)cc4)nc3)cc2s1 [(1-{[4-({5-[(E)-2-(2-amino-yl)vinyl]pyrimidin-2-amino)phenyl]sulfonyl}piperidin-4-yl)methanol] |
| 87 nM | 360 nM | Nc1nc2ccc(/C=C/c3cnc(Nc4ccc(C(=O)N5CCNCC5)cc4)nc3)cc2s1 [(4-{5-[2-(2-Amino-benzothiazol-6-yl)-vinyl]-pyrimidin-2-ylamino}-phenyl)-piperazin-1-yl-methanone] |
| 5040 nM | 2860 nM | O=S(=O)(c1ccc(Nc2ncc(/C=C/c3ccc(-c4c[nH]cn4)cc3)cn2)cc1)N1CCNCC1 [(5-{2-[4-(1H-Imidazol-4-yl)-phenyl]-vinyl}-pyrimidin-2-yl)-[4-(piperazine-1-sulfonyl)-phenyl]-amine] |
| 214 nM | 432 nM | Nc1nc2ccc(/C=C/c3cnc(Nc4ccc(S(=O)(=O)N5CCCC(O)C5)cc4)nc3)cc2s1 (centres unmarked) [(E)-1-(4-(5-(2-(2-aminobenzo[d]thiazol-6-yl)vinyl)pyrimidin-2-ylamino)phenylsulfonyl)piperidin-3-ol] |
| 317 nM | 922 nM | Nc1nc2ccc(/C=C/c3cnc(Nc4ccc(S(=O)(=O)N5CCC(O)CC5)cc4)nc3)cc2s1 [(E)-1-(4-(5-(2-(2-aminobenzo[d]thiazol-6-yl)vinyl)pyrimidin-2-ylamino)phenylsulfonyl)piperidin-4-ol] |
| 6980 nM | 10800 nM | Nc1nc2ccc(/C=C/c3cnc(Nc4ccc(S(=O)(=O)N5CCCNCC5)cc4F)nc3)cc2s1 [(E)-6-(2-(2-(4-(1,4-diazepan-1-ylsulfonyl)-2-fluorophenylamino)pyrimidin-5-yl)vinyl)benzo[d]thiazol-2-amine hydrochloride] |
| 593 nM | 1060 nM | Cc1cc(Nc2ncc(/C=C/c3ccc4nc(N)sc4c3)cn2)ccc1S(=O)(=O)N1CCCNCC1 [(E)-6-(2-(2-(4-(1,4-diazepan-1-ylsulfonyl)-3-methylphenylamino)pyrimidin-5-yl)vinyl)benzo[d]thiazol-2-amine] |
| 22 nM | 39 nM | Nc1nc2ccc(/C=C/c3cnc(Nc4ccc(S(=O)(=O)N5CCCNCC5)cc4)nc3)cc2s1 [(E)-6-(2-(2-(4-(1,4-diazepan-1-ylsulfonyl)phenylamino)pyrimidin-5-yl)vinyl)benzo[d]thiazol-2-amine] |
| 38 nM | 40 nM | Nc1nc2ccc(/C=C/c3cnc(Nc4ccc(S(=O)(=O)N5CCNCC5)cc4)nc3)cc2s1 [(E)-6-(2-(2-(4-(piperazin-1-ylsulfonyl)phenylamino)pyrimidin-5-yl)vinyl)benzo[d]thiazol-2-amine] |
| 2040 nM | 32 nM | CN1CCC(S(=O)(=O)c2ccc(Nc3ncc(/C=C/c4cccc5[nH]ncc45)cn3)cc2)CC1 [N-(4-(1-methylpiperidin-4-ylsulfonyl)phenyl)-5-((E)-2-(1H-indazol-4-yl)vinyl)pyrimidin-2-amine] |

From patent US20070149508A1, “Six membered heteroaromatic inhibitors targeting resistant kinase mutations” (TargeGen, Inc., priority 2005, published 2007)
